According to paper PMC11444284, “Chloroplastic ascorbate modifies plant metabolism and may act as a metabolite signal regardless of oxidative stress” (Plant Physiology, 2024):

Experiments:
[1] = biological target: T1, SBPase (Arabidopsis thaliana, UniProt P46283); test: malachite green phosphate release assay; format: biochemical; conditions: read-out: % inhibition at 10 mM
T1 construct: gene At3g55800
T1 sequence (P46283 75-393): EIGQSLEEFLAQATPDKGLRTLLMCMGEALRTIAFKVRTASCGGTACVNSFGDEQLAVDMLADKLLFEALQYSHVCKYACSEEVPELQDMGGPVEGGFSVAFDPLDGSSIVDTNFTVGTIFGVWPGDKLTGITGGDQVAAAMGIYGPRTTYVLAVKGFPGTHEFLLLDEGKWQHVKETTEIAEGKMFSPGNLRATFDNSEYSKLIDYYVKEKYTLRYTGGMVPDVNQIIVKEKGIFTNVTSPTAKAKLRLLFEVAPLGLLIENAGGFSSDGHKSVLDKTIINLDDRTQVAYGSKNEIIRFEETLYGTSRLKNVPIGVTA

[2] = biological target: T1, SBPase; test: malachite green phosphate release assay; format: biochemical; conditions: 500 µM; alternative substrate; 15 mM MgCl2, 10 mM DTT; thioredoxin F1-activated; room temperature activation

Row | Compound | inhibition at 10000 µM [1] | malachite green phosphate release assay [2]
1 | O=C1O[C@H]([C@@H](O)CO)C(O)=C1O [Ascorbate] | ~57% | 
2 | O=P(O)(O)OC[C@H]1OC(O)(COP(=O)(O)O)[C@@H](O)[C@@H]1O (some centres unmarked) [fructose-1-6-bisphosphate] |  | conversion rate of the alternative SBPase substrate fructose-1-6-bisphosphate to fructose-6-phosphate
